Experimental findings from patent publication US10172914B2, “Combination” (Genesis Pharma SA, priority 2015, dated 2019) are described below.

Test [1] deals with Mouse Model of Acute Myocardial Infarction Injury. Kind of test: Mouse ischemia-reperfusion model, mono-, double and triple therapies, infarct size (Example 5). The class given is in vivo, C57BL/6 mice. The settings on record: for IF/AAR: mean ± SEM. The method, then:
The test/control articles were given intravenously, under general anaesthesia, in order to mimic the expected route of administration in the clinical setting of acute myocardial infarction and primary percutaneous coronary intervention.
The study followed a predetermined placebo controlled design. […] In all cases, treatments (intravenous bolus administration of saline or test articles or their combinations) were performed 20 min after the onset of ischemia (10 min before the initiation of reperfusion). The experiments were terminated 2 h post-reperfusion (end of study); irreversible myocardial injury (infarct size by histomorphometry) at this time-point was evaluated, and was the primary-end-point of the study.
Mice were anaesthetized by intraperitoneal injection (0.01 ml/Kg) with a combination of ketamine, xylazine and atropine (final doses of ketamine, xylazine and atropine were 100, 20 and 0.6 mg/Kg, respectively). Anaesthetic depth was evaluated by loss of pedal reflex to toe-pinch stimulus and breathing rate. A tracheotomy was performed for artificial respiration at 120-150 breaths/min and positive end-expiratory pressure 2.0 (0.2 ml of total tidal volume; Flexivent rodent ventilator, Scireq, Montreal, ON, Canada). A thoracotomy was then performed between the fourth and fifth ribs and the pericardium carefully retracted to visualize the left anterior descending (LAD), which was ligated using an 8-0 prolene monofilament polypropylene suture placed 1 mm below the tip of the left auricle. […] After the ischemic period, the ligature was released allowing reperfusion of myocardium. Throughout experiments, body temperature was maintained at 37±0.5° C. by way of a heating pad and monitored via a thermocouple inserted rectally.
After reperfusion, animals were sacrificed with an intraperitoneal injection of the ketamine (200 mg/Kg) and xylazine (50 mg/Kg) anesthetic mixture (0.02 ml/Kg) hearts were rapidly excited from mice and directly cannulated and washed with 2.5 ml of saline heparin 1% for blood removal. Five ml of 1% TTC phosphate buffer 37° C. were infused into the coronary circulation; the tissue was incubated for 5 min in the same buffer. Evans Blue 1% diluted in distilled water (2.5 ml) was the infused into the heart. Hearts were kept at −20° C. for 24 hours and then sliced in 1 mm sections parallel to the atrioventricular groove, and then fixed in 4% formalin overnight. […] The areas of myocardial tissue at risk and infarcted were automatically transformed into volumes. Infarct and risk area volumes were expressed in cm^3. For each slide, the AAR was expressed as a percentage of the LV area (AAR/LV), and the IF was expressed as a percentage of the AAR (IF/AAR). In all cases, quantitative histomorphometry was performed by personnel blinded to the treatment assignment/study-design.
All results are presented as mean+SEM. Comparisons of numeric variables among the groups were analyzed using an one-way analysis of variance (ANOVA) model with Bonferroni correction and with Tukey post hoc analysis. […] A calculated P-value of less than 0.05 was considered to be statistically significant.

The test system of test [2] is Rabbit Model of Acute Myocardial Infarction Injury. The experiment in a line: Rabbit ischemia-reperfusion model, exenatide and potassium canrenoate, infarct size (Example 3). The class given is in vivo, New Zealand White rabbits. Conditions: for IF/AAR: mean ± SEM, exenatide 0.15 μg/Kg and/or P. canrenoate 1 mg/Kg IV bolus 15 min before reperfusion, 30 min ischemia, 180 min reperfusion.

Setting [3] is: exenatide 0.05 μg/Kg, cyclosporine 0.15 mg/Kg, P. canrenoate 1 mg/Kg, alone or in double/triple combination.
The mark [4] stands for this setting: monotherapy doses: exenatide 0.001 μg/Kg, cyclosporine 0.001 mg/Kg, P. canrenoate 0.03 mg/Kg.
Where [5] appears, read: monotherapy doses: exenatide 0.005 μg/Kg, cyclosporine 0.01 mg/Kg, P. canrenoate 0.3 mg/Kg.
The mark [6] stands for this setting: monotherapy doses: exenatide 0.15 μg/Kg, cyclosporine 0.5 mg/Kg, P. canrenoate 10 mg/Kg.

For the compound `C[C@]12CCC(=O)C=C1C=C[C@@H]1[C@@H]2CC[C@@]2(C)[C@H]1CC[C@@]2(O)CCC(=O)[O-].[K+]` [P. CANRENOATE, potassium 3-[(8R,9S,10R,13S,14S,17R)-17-hydroxy-10,13-dimethyl-3-oxo-2,8,9,11,12,14,15,16 octahydro-1H-cyclopenta[a]phenanthren-17-yl]propanoate], the “reduction of infarct size / extent of infarct” value in test [1] (compared with the control group, exenatide 0.05 μg/kg, cyclosporine 0.15 mg/kg, potassium canrenoate 1 mg/kg, alone or combined) amounted to 30%. Besides, the “reduction of infarct size” value in test [1] (compared with the control group, potassium canrenoate 10 mg/kg monotherapy) was determined as 58.9%. Besides, the “Different (%) in IF/AAR from Control” value in test [1] (setting [3]) is −30%; in test [1] (setting [4]), −3%; in test [1] (setting [5]), −7.2%; in test [1] (setting [6]), −58.9%; in test [2] (exenatide 0.15 μg/Kg and/or P. canrenoate 1 mg/Kg) it was −30.5%. The IF/AAR in test [1] (setting [3]) came to 33.2 ± 2.4%; in test [1] (exenatide 0.05 μg/Kg, cyclosporine 0.15 mg/Kg, P. canrenoate 1 mg/Kg, alone or in double/triple combination, listed as potassium canrenoate), 33.2±2.4%; in test [1] (setting [4]) it was 46 ± 2.5%; in test [1] (setting [5]) it was 44 ± 3.2%; in test [1] (setting [6]) it was 19.5 ± 2.5%; in test [1] (monotherapy doses: exenatide 0.15 μg/Kg, cyclosporine 0.5 mg/Kg, P. canrenoate 10 mg/Kg, listed as potassium canrenoate), 19.5±2.5%. For the same compound, the values for the IF/AAR in test [2] and in test [2] (listed as potassium canrenoate) were 34.36 ± 2.83% and 34.36±2.83%, respectively. Also, in test [2] (compared with the control group, exenatide 0.15 μg/Kg and/or potassium canrenoate 1 mg/Kg), the “reduction of the extent of infarct” value stood at 30.5%.
